In this test the target is human orexin 2 receptor (Homo sapiens (Human), UniProt O43614). Description: Human orexin 2 receptor Ca2+ mobilization assay (FLIPR, PFSK cells, orexin B 100 nM). The format is cell-based. As to conditions: modified Cheng-Prusoff correction, read-out: OR 2 Kb. For orientation: Calcium flux is commonly read through the fluorescence of an indicator in the cells.

The results in this text go back to patent US9586962B2, “Disubstituted octahydropyrrolo [3,4-C] pyrroles as orexin receptor modulators” (Janssen Pharmaceutica NV, priority 2011, dated 2017).

Sequence of human orexin 2 receptor (O43614 whole entry): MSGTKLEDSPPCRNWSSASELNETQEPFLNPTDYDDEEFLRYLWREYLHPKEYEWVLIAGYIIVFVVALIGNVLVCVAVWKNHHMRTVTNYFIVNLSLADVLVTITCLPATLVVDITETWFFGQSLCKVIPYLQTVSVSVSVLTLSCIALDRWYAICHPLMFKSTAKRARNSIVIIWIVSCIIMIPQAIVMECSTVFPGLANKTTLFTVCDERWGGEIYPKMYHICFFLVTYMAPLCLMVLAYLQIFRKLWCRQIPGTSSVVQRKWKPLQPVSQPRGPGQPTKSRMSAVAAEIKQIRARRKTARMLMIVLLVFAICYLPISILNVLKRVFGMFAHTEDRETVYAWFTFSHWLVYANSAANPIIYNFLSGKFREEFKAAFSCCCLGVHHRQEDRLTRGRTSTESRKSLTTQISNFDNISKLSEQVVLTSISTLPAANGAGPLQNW

Turning to `Cc1ccc(-c2ncccn2)c(C(=O)N2CC3CN(c4nc(C)cc(C)n4)CC3C2)c1` (stereo not drawn) [Example 102, 2-(4,6-Dimethylpyrimidin-2-yl)-5-[(5-methyl-2-pyrimidin-2-ylphenyl)carbonyl]octahydropyrrolo[3,4-c]pyrrole], the Kb was 6 nM.
Turning to `Cc1cnc(C)c(N2CC3CN(C(=O)c4ccccc4-c4cccs4)CC3C2)n1` (stereo not drawn) [Example 63, 2-(3,6-Dimethylpyrazin-2-yl)-5-[(2-thiophen-2-ylphenyl)carbonyl]octahydro-pyrrolo[3,4-c]pyrrole], the Kb is 20 nM.
Next, `Cc1cc(C)nc(N2CC3CN(C(=O)c4cccc(F)c4-c4ccn[nH]4)CC3C2)n1` (stereo not drawn) [Example 284, 2-(4,6-Dimethylpyrimidin-2-yl)-5-{[3-fluoro-2-(1H-pyrazol-5-yl)phenyl]carbonyl}octahydropyrrolo[3,4-c]pyrrole]: 2 nM; `Cc1cc(C)nc(N2CC3CN(C(=O)c4c(C)ccc5ccccc45)CC3C2)n1` (stereo not drawn) [Example 47, 2-(4,6-Dimethylpyrimidin-2-yl)-5-[(2-methylnaphthalen-1-yl)carbonyl]octahydro-pyrrolo[3,4-c]pyrrole]: 32 nM.
Next, `COc1cc(N2CC3CN(C(=O)c4ccc(F)cc4-n4nccn4)CC3C2)nc(N(C)C)n1` (stereo not drawn) [Example 7, 4-[5-{[4-Fluoro-2-(2H-1,2,3-triazol-2-yl)phenyl]carbonyl}hexahydropyrrolo[3,4-c]pyrrol-2(1H)-yl]-6-methoxy-N,N-dimethylpyrimidin-2-amine]: 13 nM; `Cc1cc(C)nc(N2CC3CN(C(=O)c4cc(F)ccc4-c4ncccn4)CC3C2)n1` (stereo not drawn) [Example 74, 2-(4,6-Dimethylpyrimidin-2-yl)-5-[(5-fluoro-2-pyrimidin-2-ylphenyl)carbonyl]octahydropyrrolo[3,4-c]pyrrole]: 10 nM.
The same measure for `COc1ccnc(N2CC3CN(C(=O)c4ccccc4-c4cccs4)CC3C2)n1` (stereo not drawn) [Example 45, 2-(4-Methoxypyrimidin-2-yl)-5-[(2-thiophen-2-ylphenyl)carbonyl]octahydro-pyrrolo[3,4-c]pyrrole]: 10 nM; for `COc1ccc(C(=O)N2CC3CN(c4ncc(C)c(C)n4)CC3C2)c(-n2nccn2)c1` (stereo not drawn) [Example 380, 2-(4,5-Dimethylpyrimidin-2-yl)-5-{[4-methoxy-2-(2H-1,2,3-triazol-2-yl)phenyl]carbonyl}octahydropyrrolo[3,4-c]pyrrole]: 5 nM.
For the compound `Cc1cnc(C)c(N2CC3CN(C(=O)c4c(F)cccc4-n4nccn4)CC3C2)n1` (stereo not drawn) [Example 101, 2-(3,6-Dimethylpyrazin-2-yl)-5-{[2-fluoro-6-(2H-1,2,3-triazol-2-yl)phenyl]carbonyl}octahydropyrrolo[3,4-c]pyrrole], the Kb was determined as 25 nM.
Take `O=C(c1ccccc1-c1cccs1)N1CC2CN(c3nccc(-c4ccccc4)n3)CC2C1` (stereo not drawn) [Example 22, 2-(4-Phenylpyrimidin-2-yl)-5-[(2-thiophen-2-ylphenyl)carbonyl]octahydro-pyrrolo[3,4-c]pyrrole]: the Kb came out at 158 nM.
The same measure for `Cc1cc(C)nc(N2CC3CN(C(=O)c4ccccc4OC(F)(F)F)CC3C2)n1` (stereo not drawn) [Example 274, (5-(4,6-Dimethylpyrimidin-2-yl)hexahydropyrrolo[3,4-c]pyrrol-2(1H)-yl)(2-(trifluoromethoxy)phenyl)methanone]: 16 nM.
For the compound `O=C(c1c(F)cccc1-n1nccn1)N1CC2CN(c3cnc4cc(F)c(F)cc4n3)CC2C1` (stereo not drawn) [Example 246, (5-(6,7-Difluoroquinoxalin-2-yl)hexahydropyrrolo[3,4-c]pyrrol-2(1H)-yl)(2-fluoro-6-(2H-1,2,3-triazol-2-yl)phenyl)methanone], the Kb was found to be 11 nM.
The same measure for `Cc1ccnc(N2CC3CN(C(=O)c4ccccc4-c4cccs4)CC3C2)n1` (stereo not drawn) [Example 32, 2-(4-Methylpyrimidin-2-yl)-5-[(2-thiophen-2-ylphenyl)carbonyl]octahydro-pyrrolo[3,4-c]pyrrole]: 32 nM; for `Cc1cc(N2CC3CN(C(=O)c4c(F)cccc4-c4ncccn4)CC3C2)nc(C(F)(F)F)n1` (stereo not drawn) [Example 117, 2-[(2-Fluoro-6-pyrimidin-2-ylphenyl)carbonyl]-5-[6-methyl-2-(trifluoromethyl)pyrimidin-4-yl]octahydropyrrolo[3,4-c]pyrrole]: 8 nM.
Next, `Cc1cc(N2CC3CN(C(=O)c4ccccc4-n4nccn4)CC3C2)nc(N(C)C)n1` (stereo not drawn) [Example 120, N,N,4-Trimethyl-6-[5-{[2-(2H-1,2,3-triazol-2-yl)phenyl]carbonyl}hexahydropyrrolo[3,4-c]pyrrol-2(1H)-yl]pyrimidin-2-amine]: 13 nM; `Cc1ccc(-c2c(F)cccc2C(=O)N2CC3CN(c4nc(C)cc(C)n4)CC3C2)nc1` (stereo not drawn) [Example 374, (5-(4,6-Dimethylpyrimidin-2-yl)hexahydropyrrolo[3,4-c]pyrrol-2(1H)-yl)(3-fluoro-2-(5-methylpyridin-2-yl)phenyl)methanone]: 12 nM; `O=C(c1cc(F)ccc1-c1ncccn1)N1CC2CN(c3nccc(-c4ccccc4)n3)CC2C1` (stereo not drawn) [Example 113, 2-[(5-Fluoro-2-pyrimidin-2-ylphenyl)carbonyl]-5-(4-phenylpyrimidin-2-yl)octahydropyrrolo[3,4-c]pyrrole]: 63 nM.
The same measure for `Cc1ccnc(N2CC3CN(C(=O)c4ccccc4-n4nccn4)CC3C2)n1` (stereo not drawn) [Example 135, 2-(4-Methylpyrimidin-2-yl)-5-{[2-(2H-1,2,3-triazol-2-yl)phenyl]carbonyl}octahydro pyrrolo[3,4-c]pyrrole]: 40 nM; for `Cc1cccc(N2CC3CN(C(=O)c4ccccc4-c4cccs4)CC3C2)n1` (stereo not drawn) [Example 134, 2-(6-Methylpyridin-2-yl)-5-[(2-thiophen-2-ylphenyl)carbonyl]octahydropyrrolo[3,4-c]pyrrole]: 12 nM.
For the compound `Cc1cc(C)nc(N2CC3CN(C(=O)c4cccc(F)c4-c4ncccn4)CC3C2)n1` (stereo not drawn) [Example 283, 2-(4,6-Dimethylpyrimidin-2-yl)-5-[(3-fluoro-2-pyrimidin-2-ylphenyl)carbonyl]octahydropyrrolo[3,4-c]pyrrole], the Kb is 2 nM.
The same measure for `O=C(c1ccccc1-n1nccn1)N1CC2CN(c3nccc(-c4cccs4)n3)CC2C1` (stereo not drawn) [Example 143, 2-(4-Thiophen-2-ylpyrimidin-2-yl)-5-{[2-(2H-1,2,3-triazol-2-yl)phenyl]carbonyl}octahydropyrrolo[3,4-c]pyrrole]: 79 nM; for `COc1ccc(C(=O)N2CC3CN(c4cnc5cc(F)c(F)cc5n4)CC3C2)c(-n2nccn2)c1` (stereo not drawn) [Example 389, (5-(6,7-Difluoroquinoxalin-2-yl)hexahydropyrrolo[3,4-c]pyrrol-2(1H)-yl)(4-methoxy-2-(2H-1,2,3-triazol-2-yl)phenyl)methanone]: 14 nM.
Next, `COc1ccc(C(=O)N2CC3CN(c4ncc(Cl)c(C)n4)CC3C2)c(-n2nccn2)c1` (stereo not drawn) [Example 378, 2-(5-Chloro-4-methylpyrimidin-2-yl)-5-{[4-methoxy-2-(2H-1,2,3-triazol-2-yl)phenyl]carbonyl}octahydropyrrolo[3,4-c]pyrrole]: 2 nM.
`O=C(c1ccccc1-c1ccccc1)N1CC2CN(c3nccc(-c4ccccc4)n3)CC2C1` (stereo not drawn) [Example 164, 2-(Biphenyl-2-ylcarbonyl)-5-(4-phenylpyrimidin-2-yl)octahydropyrrolo[3,4-c]pyrrole]: the Kb was 200 nM.
In the case of `CCc1c(C)nc(N2CC3CN(C(=O)c4ccccc4-c4ncn(C)n4)CC3C2)nc1C` (stereo not drawn) [Example 322, 2-(5-Ethyl-4,6-dimethylpyrimidin-2-yl)-5-{[2-(1-methyl-1H-1,2,4-triazol-3-yl)phenyl]carbonyl}octahydropyrrolo[3,4-c]pyrrole], the Kb stood at 5 nM.
Next, `Cc1cc(C)nc(N2CC3CN(C(=O)c4cccc(F)c4-c4ncccc4F)CC3C2)n1` (stereo not drawn) [Example 375, (5-(4,6-Dimethylpyrimidin-2-yl)hexahydropyrrolo[3,4-c]pyrrol-2(1H)-yl)(3-fluoro-2-(3-fluoropyridin-2-yl)phenyl)methanone]: 4 nM.
The same measure for `Cc1nc(N2CC3CN(C(=O)c4ccccc4-c4ncn(C)n4)CC3C2)nc(C)c1C` (stereo not drawn) [Example 311, 2-{[2-(1-Methyl-1H-1,2,4-triazol-3-yl)phenyl]carbonyl}-5-(4,5,6-trimethylpyrimidin-2-yl)octahydropyrrolo[3,4-c]pyrrole]: 3 nM; for `COc1ccnc(N2CC3CN(C(=O)c4cc(F)ccc4-c4ncccn4)CC3C2)n1` (stereo not drawn) [Example 150, 2-[(5-Fluoro-2-pyrimidin-2-ylphenyl)carbonyl]-5-(4-methoxypyrimidin-2-yl)octahydropyrrolo[3,4-c]pyrrole]: 40 nM.
As to `Cc1cnc(C)c(N2CC3CN(C(=O)c4cc(F)ccc4-c4ncccn4)CC3C2)n1` (stereo not drawn) [Example 212, [5-(3,6-Dimethyl-pyrazin-2-yl)-hexahydro-pyrrolo[3,4-c]pyrrol-2-yl]-(5-fluoro-2-pyrimidin-2-yl-phenyl)-methanone], the Kb stood at 32 nM.
The same measure for `Cc1noc(-c2ccccc2C(=O)N2CC3CN(c4nc(C)c5c(n4)CCC5)CC3C2)n1` (stereo not drawn) [Example 319, 4-Methyl-2-[5-{[2-(3-methyl-1,2,4-oxadiazol-5-yl)phenyl]carbonyl}hexahydropyrrolo[3,4-c]pyrrol-2(1H)-yl]-6,7-dihydro-5H-cyclopenta[d]pyrimidine]: 7 nM; for `O=C(c1cccc(F)c1-n1nccn1)N1CC2CN(c3ncc4cc(F)ccc4n3)CC2C1` (stereo not drawn) [Example 242, (3-Fluoro-2-(2H-1,2,3-triazol-2-yl)phenyl)(5-(6-fluoroquinazolin-2-yl)hexahydropyrrolo[3,4-c]pyrrol-2(1H)-yl)methanone]: 13 nM; for `Cc1cc(C)nc(N2CC3CN(C(=O)c4c(-n5nccn5)ccc5c4OCO5)CC3C2)n1` (stereo not drawn) [Example 327, [5-(4,6-Dimethyl-pyrimidin-2-yl)-hexahydro-pyrrolo[3,4-c]pyrrol-2-yl]-(5-[1,2,3]triazol-2-yl-benzo[1,3]dioxol-4-yl)methanone]: 50 nM.
Next, `COc1cccc(N2CC3CN(C(=O)c4ccccc4-c4cccs4)CC3C2)n1` (stereo not drawn) [Example 137, 2-(6-Methoxypyridin-2-yl)-5-[(2-thiophen-2-ylphenyl)carbonyl]octahydro pyrrolo[3,4-c]pyrrole]: 25 nM.
